Results published in patent US8796268B2, “Heteroaryls and uses thereof” (Millennium Pharmaceuticals, Inc., priority 2010, dated 2014).

Tests used:
Assay type in all cases: biochemical
Human PI3K gamma = target: T1, Human PI3K gamma (Homo sapiens, UniProt P48736); assay: Human PI3K gamma enzyme assay (HTRF); settings: concentration not given, b1389 states 1.0 μM for PI3K δ and γ; for inhibition at 1 µM: read-out: p110 gamma Percent Inhibition
T1 construct: His (N); host or cells: SF9 insect cells (baculovirus)
From the text: (§1) The catalytic subunits of PI3Ks are cloned into either pDEST8(p110 alpha) or pDEST10(p110beta, p110delta, and p110gamma) as N-terminal His tagged fusion proteins using the Gateway system (Invitrogen, catalog#11804-010 for pDEST8 and 11806-015 for pDEST10). The sequences are verified before recombinant protein expression using the Baculovirus Expression System with Gateway® Technology. The accession numbers for the subunits are as follows: • p110 alpha (GB:U79143) • p110beta (GB: S67334) • p110delta (GB: U86453) • p110gamma (GB: X83368) • The regulatory subunits of PI3Ks are cloned into pDEST8 as un-tagged protein using the Gateway system (Catalog#11804-010). The sequences are verified before recombinant protein expression using the Baculovirus Expression System with Gateway® Technology. The accession numbers for the subunits are as following: • p85 alpha (GB: BC030815) • p101(GB: AB028925) • VPS34 (accession number GB:BC033004) is cloned into pDEST20—Thombin as N-terminal GST tagged fusion proteins using the Gateway system (Invitrogen, catalog#11804-013). The sequences are verified before recombinant protein expression using the Baculovirus Expression System with Gateway® Technology.
(§2) For expression of the p110 complexes, the p85 (MOI of 4) is co-infected with p110 alpha, beta, and delta respectively (1MOI) in SF9 cells and harvested at 60 hours post co-infection. P110 gamma was infected at 1 MOI and harvested at 60 hours post infection.
(§3) For purification, PI3Ks are purified by Ni-NTA Agarose (Qiagen #30250) followed by Mono Q 10/100 GL (Ge Healthcare #17-5167-01). VPS34 is purified by Glutathione Sepharose 4 Fast Flow (GE Healthcare #17-5132-03) followed by HiTrap Q (GE Healthcare #17-1153-01).
(§4) 0.5 uL compounds in DMSO are added to wells of a 384 well microtitre plate (Corning 3575). At room temperature: 10 ul PI3K reaction buffer (50 mM Hepes, 5 mM DTT, 150 mM NaCl, 10 mM beta-glycerophosphate, 10 mM MgCl2, 0.25 mM sodium cholate and 0.001% CHAPS, pH 7.00) containing ATP (25 uM, Promega) is added followed immediately by 10 ul PI3K reaction buffer containing di-C8 P1(4,5)P2 (3.5 uM, CellSignals) and PI3Kalpha (0.4875 nM, Millennium Protein Sciences Group) and the mixture is incubated with shaking at room temperature for 30 minutes. Then 5 ul PI3K stop mix (50 mM Hepes, 5 mM DTT, 150 mM NaCl, 0.01% Tween-20, 15 mM EDTA and 25 nM biotin-PI(3,4,5)P3 (Echelon) is added to quench the reaction followed immediately by addition of 5 ul HTRF detection mix (50 mM Hepes, 5 mM DTT, 150 mM NaCl, 0.01% Tween-20, 40 mM KF, 1.0 nM GST:GRP-1 PH domain (Millennium Protein Sciences Group), 15 nM Streptavidin-XL (CisBio) and 0.375 nM anti-GST Eu++ antibody (CisBio) at pH 7.00). The plates are then incubated for 1 hour at room temperature with shaking and then read on a BMG PheraStar Plus reader.
(§5) 2) Human PI3K beta, delta and gamma isoforms are tested using the procedure described for PI3K alpha above but with the following changes: PI3K beta (5.25 nM), PI3K delta (0.75 nM) and PI3K gamma (5 nM). All isoforms supplied by Millennium Protein Science Group.
(§6) For the assay methods described above, test compound percent inhibition, at various concentrations, is calculated relative to control (DMSO and EDTA) treated samples. Compound concentration versus percent inhibition curves are fitted to generate IC50 values. One skilled in the art will appreciate that the values generated either as percentage inhibition at a single concentration or IC50 values are subject to experimental variation.

Human PI3K beta = target: T2, Human PI3K beta (Homo sapiens, UniProt P42338); assay: Human PI3K beta enzyme assay (HTRF); settings: concentration not given, b1387 states 1.1 μM for PI3K α and β; for inhibition at 1.1 µM: read-out: p110 beta Percent Inhibition
T2 construct: His (N); host or cells: SF9 insect cells (baculovirus)
In short: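 Compounds were mixed with 25 uM ATP, then with 3.5 uM di-C8 PI(4,5)P2 and His-tagged PI3K isoform (β 5.25 nM, δ 0.75 nM, γ 5 nM) at pH 7.00. After 30 min at room temperature, EDTA stopped the reaction and PIP3 was measured by HTRF over 1 h.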

Human PI3K alpha = target: T3, Human PI3K alpha (Homo sapiens, UniProt P42336); assay: Human PI3K alpha enzyme assay (HTRF); settings: concentration not given, b1387 states 1.1 μM for PI3K α and β; for inhibition at 1.1 µM: read-out: p110 alpha Percent Inhibition
T3 construct: His (N); host or cells: SF9 insect cells (baculovirus)

Human PI3K delta = target: T4, Human PI3K delta (Homo sapiens, UniProt O00329); assay: Human PI3K delta enzyme assay (HTRF); settings: concentration not given, b1389 states 1.0 μM for PI3K δ and γ; for inhibition at 1 µM: read-out: p110 delta Percent Inhibition
T4 construct: His (N); host or cells: SF9 insect cells (baculovirus)
From the text: as §1, §2, §3, §4, §5, §6

T3 sequence (P42336 whole entry): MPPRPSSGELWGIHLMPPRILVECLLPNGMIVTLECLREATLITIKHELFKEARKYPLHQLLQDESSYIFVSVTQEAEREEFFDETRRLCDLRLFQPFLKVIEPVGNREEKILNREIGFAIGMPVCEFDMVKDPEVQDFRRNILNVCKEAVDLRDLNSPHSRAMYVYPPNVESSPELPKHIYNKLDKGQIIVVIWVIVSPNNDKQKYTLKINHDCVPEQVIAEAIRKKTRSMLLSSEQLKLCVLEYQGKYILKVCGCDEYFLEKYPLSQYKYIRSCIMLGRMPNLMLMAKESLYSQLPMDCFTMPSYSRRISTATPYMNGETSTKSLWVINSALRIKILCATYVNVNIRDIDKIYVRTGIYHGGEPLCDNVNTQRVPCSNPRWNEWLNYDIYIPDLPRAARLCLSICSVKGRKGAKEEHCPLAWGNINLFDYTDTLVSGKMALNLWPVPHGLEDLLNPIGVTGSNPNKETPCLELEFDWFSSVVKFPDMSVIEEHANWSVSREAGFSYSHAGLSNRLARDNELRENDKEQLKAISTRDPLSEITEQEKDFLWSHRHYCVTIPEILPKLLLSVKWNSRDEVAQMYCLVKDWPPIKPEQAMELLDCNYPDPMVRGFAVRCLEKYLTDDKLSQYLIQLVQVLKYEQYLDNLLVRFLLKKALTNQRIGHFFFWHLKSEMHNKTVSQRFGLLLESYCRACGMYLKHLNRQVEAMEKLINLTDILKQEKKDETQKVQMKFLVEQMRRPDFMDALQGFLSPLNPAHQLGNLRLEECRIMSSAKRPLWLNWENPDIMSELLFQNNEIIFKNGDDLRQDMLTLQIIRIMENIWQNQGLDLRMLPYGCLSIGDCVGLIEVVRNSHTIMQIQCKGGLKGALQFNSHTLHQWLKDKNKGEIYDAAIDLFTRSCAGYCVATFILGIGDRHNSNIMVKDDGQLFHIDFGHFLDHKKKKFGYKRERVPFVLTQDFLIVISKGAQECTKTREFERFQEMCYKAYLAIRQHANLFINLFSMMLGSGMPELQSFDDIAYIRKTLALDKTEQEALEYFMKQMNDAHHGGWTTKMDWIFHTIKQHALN
T3 sequence (P27986 whole entry partner): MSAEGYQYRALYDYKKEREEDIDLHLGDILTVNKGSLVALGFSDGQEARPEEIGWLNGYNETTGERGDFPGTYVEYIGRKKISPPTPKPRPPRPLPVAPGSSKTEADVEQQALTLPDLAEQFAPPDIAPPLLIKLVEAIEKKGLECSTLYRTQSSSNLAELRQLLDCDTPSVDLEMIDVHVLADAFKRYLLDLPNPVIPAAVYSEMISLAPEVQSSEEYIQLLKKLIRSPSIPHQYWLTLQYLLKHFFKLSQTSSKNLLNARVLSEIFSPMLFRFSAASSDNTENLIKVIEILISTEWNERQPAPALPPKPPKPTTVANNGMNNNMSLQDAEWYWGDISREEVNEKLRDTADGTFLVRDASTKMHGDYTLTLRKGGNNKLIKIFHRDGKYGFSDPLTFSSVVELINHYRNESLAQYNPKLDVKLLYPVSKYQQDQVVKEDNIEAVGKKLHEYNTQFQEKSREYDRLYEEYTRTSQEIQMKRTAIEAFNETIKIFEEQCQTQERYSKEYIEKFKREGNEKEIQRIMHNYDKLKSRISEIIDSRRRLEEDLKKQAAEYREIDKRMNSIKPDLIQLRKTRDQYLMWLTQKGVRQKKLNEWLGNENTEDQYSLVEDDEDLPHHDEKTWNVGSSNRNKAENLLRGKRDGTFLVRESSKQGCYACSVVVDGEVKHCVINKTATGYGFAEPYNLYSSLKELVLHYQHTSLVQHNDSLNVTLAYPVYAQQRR
T4 sequence (O00329 whole entry): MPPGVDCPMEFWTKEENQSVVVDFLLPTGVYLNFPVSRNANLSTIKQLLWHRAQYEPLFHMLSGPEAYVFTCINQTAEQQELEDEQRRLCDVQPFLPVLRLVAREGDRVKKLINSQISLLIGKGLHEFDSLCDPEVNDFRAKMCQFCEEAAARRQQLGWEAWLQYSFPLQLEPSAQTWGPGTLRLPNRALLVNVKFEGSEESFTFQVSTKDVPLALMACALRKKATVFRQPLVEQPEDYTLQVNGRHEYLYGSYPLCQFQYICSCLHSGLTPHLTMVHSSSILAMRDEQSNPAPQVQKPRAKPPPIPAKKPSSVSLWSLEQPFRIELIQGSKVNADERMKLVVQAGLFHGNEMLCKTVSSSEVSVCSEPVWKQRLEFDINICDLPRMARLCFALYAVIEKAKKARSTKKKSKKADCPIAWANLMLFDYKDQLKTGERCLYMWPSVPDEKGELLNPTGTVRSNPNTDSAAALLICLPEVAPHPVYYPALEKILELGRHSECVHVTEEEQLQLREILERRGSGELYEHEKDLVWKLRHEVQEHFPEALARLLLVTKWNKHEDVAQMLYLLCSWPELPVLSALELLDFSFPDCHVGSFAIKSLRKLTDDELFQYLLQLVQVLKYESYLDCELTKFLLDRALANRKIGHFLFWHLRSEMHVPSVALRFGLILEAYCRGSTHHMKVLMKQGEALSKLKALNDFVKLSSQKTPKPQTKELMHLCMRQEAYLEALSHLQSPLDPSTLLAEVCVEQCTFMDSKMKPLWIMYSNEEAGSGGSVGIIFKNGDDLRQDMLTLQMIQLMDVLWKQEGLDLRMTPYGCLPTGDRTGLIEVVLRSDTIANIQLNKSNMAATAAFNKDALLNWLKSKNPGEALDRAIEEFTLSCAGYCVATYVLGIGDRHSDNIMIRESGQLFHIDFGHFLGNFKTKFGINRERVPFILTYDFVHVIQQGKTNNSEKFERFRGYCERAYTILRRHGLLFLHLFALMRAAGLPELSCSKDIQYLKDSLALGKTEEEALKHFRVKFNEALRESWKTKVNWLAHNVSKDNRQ
T4 sequence (P27986 whole entry partner): as the sequence (P27986 whole entry partner) above
T1 sequence (P48736 whole entry): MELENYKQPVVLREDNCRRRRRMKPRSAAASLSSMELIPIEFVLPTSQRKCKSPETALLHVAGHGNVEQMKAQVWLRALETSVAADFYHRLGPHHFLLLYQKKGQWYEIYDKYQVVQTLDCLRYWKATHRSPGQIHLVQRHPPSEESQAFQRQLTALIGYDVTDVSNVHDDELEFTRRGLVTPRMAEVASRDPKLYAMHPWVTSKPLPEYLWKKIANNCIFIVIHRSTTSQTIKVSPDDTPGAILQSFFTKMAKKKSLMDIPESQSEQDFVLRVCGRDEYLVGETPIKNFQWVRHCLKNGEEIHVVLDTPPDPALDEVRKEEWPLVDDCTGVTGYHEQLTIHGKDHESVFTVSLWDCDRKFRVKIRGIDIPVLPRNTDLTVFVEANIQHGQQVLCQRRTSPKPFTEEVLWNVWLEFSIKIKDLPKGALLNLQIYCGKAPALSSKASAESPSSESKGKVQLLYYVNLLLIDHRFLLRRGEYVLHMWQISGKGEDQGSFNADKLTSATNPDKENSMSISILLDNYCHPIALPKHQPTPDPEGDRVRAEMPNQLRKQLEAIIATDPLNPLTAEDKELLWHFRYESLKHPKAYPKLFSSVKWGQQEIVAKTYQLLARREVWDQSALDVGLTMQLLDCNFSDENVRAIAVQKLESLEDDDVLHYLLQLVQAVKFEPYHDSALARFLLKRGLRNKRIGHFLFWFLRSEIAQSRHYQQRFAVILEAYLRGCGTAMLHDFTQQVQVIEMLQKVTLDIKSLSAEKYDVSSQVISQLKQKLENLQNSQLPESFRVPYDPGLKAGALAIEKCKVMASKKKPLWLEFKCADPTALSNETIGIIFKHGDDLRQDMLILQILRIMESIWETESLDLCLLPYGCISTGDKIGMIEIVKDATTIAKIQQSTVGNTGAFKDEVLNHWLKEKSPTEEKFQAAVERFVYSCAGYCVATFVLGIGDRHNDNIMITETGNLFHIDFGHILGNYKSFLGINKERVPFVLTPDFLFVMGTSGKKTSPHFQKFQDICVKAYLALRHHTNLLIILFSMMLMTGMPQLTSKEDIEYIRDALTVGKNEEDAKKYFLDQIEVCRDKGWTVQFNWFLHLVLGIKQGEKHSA
T2 sequence (P42338 whole entry): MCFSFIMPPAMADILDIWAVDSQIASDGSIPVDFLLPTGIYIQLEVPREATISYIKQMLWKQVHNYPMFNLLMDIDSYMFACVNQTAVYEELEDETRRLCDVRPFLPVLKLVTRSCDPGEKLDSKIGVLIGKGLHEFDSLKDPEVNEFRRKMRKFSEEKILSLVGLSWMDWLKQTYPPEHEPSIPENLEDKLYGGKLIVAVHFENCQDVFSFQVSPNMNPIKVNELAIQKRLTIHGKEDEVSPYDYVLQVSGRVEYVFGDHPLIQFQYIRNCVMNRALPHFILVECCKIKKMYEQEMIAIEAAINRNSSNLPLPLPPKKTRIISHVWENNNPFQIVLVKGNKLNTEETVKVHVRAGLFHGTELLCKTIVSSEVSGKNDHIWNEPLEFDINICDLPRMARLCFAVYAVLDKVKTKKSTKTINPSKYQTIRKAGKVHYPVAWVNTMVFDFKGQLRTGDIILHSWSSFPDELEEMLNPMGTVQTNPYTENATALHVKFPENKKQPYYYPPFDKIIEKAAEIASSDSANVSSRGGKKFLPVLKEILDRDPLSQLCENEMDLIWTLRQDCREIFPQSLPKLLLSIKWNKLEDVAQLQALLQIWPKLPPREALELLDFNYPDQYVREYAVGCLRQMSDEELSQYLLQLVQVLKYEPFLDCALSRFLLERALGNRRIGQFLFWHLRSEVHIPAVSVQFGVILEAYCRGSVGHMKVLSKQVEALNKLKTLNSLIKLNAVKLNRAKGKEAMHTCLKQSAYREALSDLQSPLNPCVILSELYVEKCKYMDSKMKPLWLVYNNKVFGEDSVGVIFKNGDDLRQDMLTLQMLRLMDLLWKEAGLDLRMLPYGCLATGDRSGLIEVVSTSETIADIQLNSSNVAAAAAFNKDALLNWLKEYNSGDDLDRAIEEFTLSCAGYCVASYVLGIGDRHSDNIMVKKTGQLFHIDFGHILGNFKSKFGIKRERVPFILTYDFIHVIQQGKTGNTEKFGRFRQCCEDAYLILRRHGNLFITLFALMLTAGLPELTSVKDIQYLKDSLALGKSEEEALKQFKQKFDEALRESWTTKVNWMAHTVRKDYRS
T2 sequence (P27986 whole entry partner): as the sequence (P27986 whole entry partner) above

Compound `CC(=O)Nc1cc(-c2cc(C(c3ccc(Cl)cc3)N3CCN(C)CC3)c(-c3nnc[nH]3)s2)ccn1` (centres unmarked) [Compound 267] has an inhibition at 1 µM (Human PI3K gamma) of 43%, an inhibition at 1.1 µM (Human PI3K beta) of 113% and an inhibition at 1.1 µM (Human PI3K alpha) of 100%. The inhibition at 1 µM (Human PI3K delta) was 111%.

`CC(c1ccc(Cl)c(Cl)c1)c1nc(N2CCOCC2)sc1C(=O)O` (centres unmarked) [Compound 332] showed an inhibition at 1 µM (Human PI3K gamma) of 27%, an inhibition at 1.1 µM (Human PI3K beta) of 77% and an inhibition at 1.1 µM (Human PI3K alpha) of 11%. The inhibition at 1 µM (Human PI3K delta) was 91%.

With `CC(=O)Nc1cc(-c2cc(C(c3ccc(Cl)cc3)N3CCN(S(C)(=O)=O)CC3)c(-c3nnc[nH]3)s2)ccn1` (centres unmarked) [Compound 224] the inhibition at 1 µM (Human PI3K gamma) was 15%, the inhibition at 1.1 µM (Human PI3K beta) was 92% and the inhibition at 1.1 µM (Human PI3K alpha) was 70%. The inhibition at 1 µM (Human PI3K delta) was 103%.

`CC(=O)Nc1cc(-c2cc(C(c3ccc(Cl)cc3)N(C)C3CCNCC3)c(-c3nnc[nH]3)s2)ccn1` (centres unmarked) [Compound 222] showed an inhibition at 1 µM (Human PI3K gamma) of 9%, an inhibition at 1.1 µM (Human PI3K beta) of 98% and an inhibition at 1.1 µM (Human PI3K alpha) of 68%. For the same compound, the inhibition at 1 µM (Human PI3K delta) was 102%.

`CC(=O)Nc1cc(-c2sc(-c3nnc[nH]3)c(C(c3ccc(Cl)cc3)N3CCNCC3)c2C#N)ccn1` (centres unmarked) [Compound 218] showed an inhibition at 1 µM (Human PI3K gamma) of 14%, an inhibition at 1.1 µM (Human PI3K beta) of 102% and an inhibition at 1.1 µM (Human PI3K alpha) of 61%. For the same compound, the inhibition at 1 µM (Human PI3K delta) was 97%.

`CC(=O)Nc1cc(-c2sc(-c3nnc[nH]3)c(C(O)c3ccc4ccccc4n3)c2C#N)ccn1` (centres unmarked) [Compound 153] gave an inhibition at 1 µM (Human PI3K gamma) of 11%, an inhibition at 1.1 µM (Human PI3K beta) of 84% and an inhibition at 1.1 µM (Human PI3K alpha) of 75%. The inhibition at 1 µM (Human PI3K delta) was 87%.

`O=C(O)c1sc(N2CCOCC2)nc1Cc1cc2cc(Br)ccc2s1` [Compound 303] showed an inhibition at 1 µM (Human PI3K gamma) of 69%, an inhibition at 1.1 µM (Human PI3K beta) of 110% and an inhibition at 1.1 µM (Human PI3K alpha) of 99%. For the same compound, the inhibition at 1 µM (Human PI3K delta) was 115%.

For `OC(c1ccc(C(F)(F)F)cc1)c1cc(-c2ccncc2)sc1-c1nnc[nH]1` (centres unmarked) [Compound 142], the inhibition at 1 µM (Human PI3K gamma) was 7%, the inhibition at 1.1 µM (Human PI3K beta) was 67% and the inhibition at 1.1 µM (Human PI3K alpha) was 15%. For the same compound, the inhibition at 1 µM (Human PI3K delta) was 47%.

`CC(=O)Nc1cc(-c2nc(C(O)c3ccc(Cl)cc3)c(-c3nnc[nH]3)s2)ccn1` (centres unmarked) [Compound 238] gave an inhibition at 1 µM (Human PI3K gamma) of 11%, an inhibition at 1.1 µM (Human PI3K beta) of 88% and an inhibition at 1.1 µM (Human PI3K alpha) of 72%. The inhibition at 1 µM (Human PI3K delta) was 96%.

With `CC(=O)Nc1cc(-c2cc(C(c3ccc(Cl)cc3)N(C)C3CNC3)c(-c3nnc[nH]3)s2)ccn1` (centres unmarked) [Compound 277] the “p110 gamma Percent Inhibition” value (Human PI3K gamma) was 55%, the “p110 beta Percent Inhibition” value (Human PI3K beta) was 97% and the “p110 alpha Percent Inhibition” value (Human PI3K alpha) was 95%. For the same compound, the “p110 delta Percent Inhibition” value (Human PI3K delta) was 116%.

`O=C(O)c1sc(N2CCOCC2)nc1Cc1cc(Cl)c(Cl)cc1F` [Compound 290] gave an inhibition at 1 µM (Human PI3K gamma) of 49%, an inhibition at 1.1 µM (Human PI3K beta) of 104% and an inhibition at 1.1 µM (Human PI3K alpha) of 23%. It also gave an inhibition at 1 µM (Human PI3K delta) of 104%.

Compound `OC(c1ccc2c(c1)OCO2)c1cc(-c2ccncc2)sc1-c1nnc[nH]1` (centres unmarked) [Compound 256] has an inhibition at 1 µM (Human PI3K gamma) of 8%, an inhibition at 1.1 µM (Human PI3K beta) of 87% and an inhibition at 1.1 µM (Human PI3K alpha) of 25%. It also gave an inhibition at 1 µM (Human PI3K delta) of 57%.

`Cn1c(Cc2nc(N3CCOCC3)sc2C(=O)O)cc2ccccc21` [Compound 302] showed an inhibition at 1 µM (Human PI3K gamma) of 15%, an inhibition at 1.1 µM (Human PI3K beta) of 100% and an inhibition at 1.1 µM (Human PI3K alpha) of 21%. It also gave an inhibition at 1 µM (Human PI3K delta) of 97%.

For `COc1cc(C(O)c2cc(-c3ccnnc3)sc2-c2nnc[nH]2)c(F)cc1Cl` (centres unmarked) [Compound 168], the “p110 gamma Percent Inhibition” value (Human PI3K gamma) was 58%, the “p110 beta Percent Inhibition” value (Human PI3K beta) was 107% and the “p110 alpha Percent Inhibition” value (Human PI3K alpha) was 23%. For the same compound, the “p110 delta Percent Inhibition” value (Human PI3K delta) was 110%.
